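In this assay, cells in 96-well plates receive the compound at five concentrations for 48 hours. Endpoints are linearly interpolated between the surrounding concentrations. Here, GI50 denotes the concentration required for 50% inhibition of growth. TGI: concentration producing complete growth inhibition.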
How the values were obtained:
Assay in all cases: NCI anticancer screen, dose series, 48 h
NCI/ADR-RES ovarian = tested on: NCI/ADR-RES ovarian
SK-MEL-2 melanoma = tested on: SK-MEL-2 melanoma
MDA-MB-231 breast = tested on: MDA-MB-231 breast
UACC-62 melanoma = tested on: UACC-62 melanoma
IGROV1 ovarian = tested on: IGROV1 ovarian
SF-295 CNS = tested on: SF-295 CNS
RPMI-8226 leukemia = tested on: RPMI-8226 leukemia
MOLT-4 leukemia = tested on: MOLT-4 leukemia
SNB-19 CNS = tested on: SNB-19 CNS
NCI-H226 lung = tested on: NCI-H226 lung
MALME-3M melanoma = tested on: MALME-3M melanoma
K-562 leukemia = tested on: K-562 leukemia
HT29 colon = tested on: HT29 colon
KM12 colon = tested on: KM12 colon
SF-268 CNS = tested on: SF-268 CNS
OVCAR-3 ovarian = tested on: OVCAR-3 ovarian
HCC-2998 colon = tested on: HCC-2998 colon
HS 578T breast = tested on: HS 578T breast
HCT-116 colon = tested on: HCT-116 colon
A498 renal = tested on: A498 renal
CAKI-1 renal = tested on: CAKI-1 renal
786-0 renal = tested on: 786-0 renal
OVCAR-8 ovarian = tested on: OVCAR-8 ovarian
SF-539 CNS = tested on: SF-539 CNS
UACC-257 melanoma = tested on: UACC-257 melanoma
MCF7 breast = tested on: MCF7 breast
SN12C renal = tested on: SN12C renal
OVCAR-5 ovarian = tested on: OVCAR-5 ovarian
U251 CNS = tested on: U251 CNS
HOP-92 NSCLC = tested on: HOP-92 NSCLC
COLO 205 colon = tested on: COLO 205 colon
MDA-MB-435 = tested on: MDA-MB-435
SK-OV-3 ovarian = tested on: SK-OV-3 ovarian
HL-60(TB) leukemia = tested on: HL-60(TB) leukemia
T-47D breast = tested on: T-47D breast
M14 melanoma = tested on: M14 melanoma
SK-MEL-5 melanoma = tested on: SK-MEL-5 melanoma
A549 NSCLC = tested on: A549 NSCLC
NCI-H522 lung = tested on: NCI-H522 lung
PC-3 prostate = tested on: PC-3 prostate
EKVX NSCLC = tested on: EKVX NSCLC
SR leukemia = tested on: SR leukemia
RXF 393 renal = tested on: RXF 393 renal
HOP-62 NSCLC = tested on: HOP-62 NSCLC
SK-MEL-28 melanoma = tested on: SK-MEL-28 melanoma
NCI-H460 lung = tested on: NCI-H460 lung
CCRF-CEM leukemia = tested on: CCRF-CEM leukemia
UO-31 renal = tested on: UO-31 renal
LOX IMVI melanoma = tested on: LOX IMVI melanoma
DU-145 prostate = tested on: DU-145 prostate
NCI-H23 lung = tested on: NCI-H23 lung
SW-620 colon = tested on: SW-620 colon
SNB-75 CNS = tested on: SNB-75 CNS
BT-549 breast = tested on: BT-549 breast
HCT-15 colon = tested on: HCT-15 colon
ACHN renal = tested on: ACHN renal
OVCAR-4 ovarian = tested on: OVCAR-4 ovarian
TK-10 renal = tested on: TK-10 renal

With `COC(=O)C1C(O)C(C)C(=O)C(C)/C=C\C=C(C)C(=O)Nc2c(C)c(OC(C)=O)c3c(c2O)C(=O)C(C)=C2OCOC(=C23)C(C)=CC(C)(O)C(O)C(C)C1O` (stereo not given) the TGI (NCI/ADR-RES ovarian) was over 100 µM, the TGI (SK-MEL-2 melanoma) was 86.1 µM and the TGI (MDA-MB-231 breast) was over 100 µM. For the same compound, the TGI (UACC-62 melanoma) was 44.2 µM, the TGI (IGROV1 ovarian) was 58.3 µM and the TGI (SF-295 CNS) was over 100 µM. It also gave a TGI (RPMI-8226 leukemia) of over 100 µM, a TGI (MOLT-4 leukemia) of over 100 µM and a TGI (SNB-19 CNS) of over 100 µM. For the same compound, the TGI (NCI-H226 lung) was over 100 µM, the TGI (MALME-3M melanoma) was 49.8 µM and the TGI (K-562 leukemia) was 49.4 µM. It also gave a TGI (HT29 colon) of 70 µM, a TGI (KM12 colon) of over 100 µM and a TGI (SF-268 CNS) of over 100 µM. For the same compound, the TGI (OVCAR-3 ovarian) was over 100 µM, the TGI (HCC-2998 colon) was 53.2 µM and the TGI (HS 578T breast) was over 100 µM. For the same compound, the TGI (HCT-116 colon) was 63.9 µM, the TGI (A498 renal) was 82.2 µM and the TGI (CAKI-1 renal) was over 100 µM. It also gave a TGI (786-0 renal) of over 100 µM, a TGI (OVCAR-8 ovarian) of over 100 µM and a TGI (SF-539 CNS) of over 100 µM. The TGI (UACC-257 melanoma) was 32.9 µM, the TGI (MCF7 breast) was 90.6 µM and the TGI (SN12C renal) was over 100 µM. It also gave a TGI (OVCAR-5 ovarian) of over 100 µM, a TGI (U251 CNS) of over 100 µM and a TGI (HOP-92 NSCLC) of over 100 µM. For the same compound, the TGI (COLO 205 colon) was 49.3 µM, the TGI (MDA-MB-435) was over 100 µM and the TGI (SK-OV-3 ovarian) was over 100 µM. For the same compound, the TGI (HL-60(TB) leukemia) was 48.4 µM, the TGI (T-47D breast) was over 100 µM and the TGI (M14 melanoma) was 65.9 µM. It also gave a TGI (SK-MEL-5 melanoma) of 27.6 µM, a TGI (A549 NSCLC) of 61.2 µM and a TGI (NCI-H522 lung) of over 100 µM. It also gave a TGI (PC-3 prostate) of over 100 µM, a TGI (EKVX NSCLC) of over 100 µM and a TGI (SR leukemia) of 87 µM. It also gave a TGI (RXF 393 renal) of over 100 µM, a TGI (HOP-62 NSCLC) of over 100 µM and a TGI (SK-MEL-28 melanoma) of 60.3 µM. It also gave a TGI (NCI-H460 lung) of 93.5 µM, a TGI (CCRF-CEM leukemia) of 54.2 µM and a TGI (UO-31 renal) of over 100 µM. For the same compound, the TGI (LOX IMVI melanoma) was 57.8 µM, the TGI (DU-145 prostate) was 28.2 µM and the TGI (NCI-H23 lung) was 35 µM. It also gave a TGI (SW-620 colon) of over 100 µM, a TGI (SNB-75 CNS) of over 100 µM and a TGI (BT-549 breast) of over 100 µM. For the same compound, the TGI (HCT-15 colon) was 45.6 µM and the TGI (ACHN renal) was over 100 µM.
`COc1ccc(-c2c(-c3cc(OC)c(OC)c(OC)c3)nc3sc(C4CC4)nn23)cc1OC` gave a GI50 (NCI/ADR-RES ovarian) of 7.35 µM, a TGI (NCI/ADR-RES ovarian) of over 100 µM and a GI50 (SK-MEL-2 melanoma) of 7.52 µM. It also gave a TGI (SK-MEL-2 melanoma) of 50.8 µM, a GI50 (MDA-MB-231 breast) of 2.72 µM and a TGI (MDA-MB-231 breast) of over 100 µM. It also gave a GI50 (UACC-62 melanoma) of 1.94 µM, a TGI (UACC-62 melanoma) of 40.4 µM and a GI50 (IGROV1 ovarian) of 5.28 µM. The TGI (IGROV1 ovarian) was over 100 µM, the GI50 (SF-295 CNS) was 6.11 µM and the TGI (SF-295 CNS) was over 100 µM. The GI50 (RPMI-8226 leukemia) was 3 µM, the TGI (RPMI-8226 leukemia) was 19.6 µM and the GI50 (MOLT-4 leukemia) was 9.94 µM. It also gave a TGI (MOLT-4 leukemia) of 72 µM, a GI50 (SNB-19 CNS) of 9.04 µM and a TGI (SNB-19 CNS) of over 100 µM. The GI50 (NCI-H226 lung) was 16.3 µM, the TGI (NCI-H226 lung) was over 100 µM and the GI50 (MALME-3M melanoma) was 18.1 µM. It also gave a TGI (MALME-3M melanoma) of 75.2 µM, a GI50 (K-562 leukemia) of 10 µM and a TGI (K-562 leukemia) of over 100 µM. It also gave a GI50 (HT29 colon) of 3.48 µM, a TGI (HT29 colon) of over 100 µM and a GI50 (KM12 colon) of 17.5 µM. The TGI (KM12 colon) was over 100 µM, the GI50 (SF-268 CNS) was 32.8 µM and the TGI (SF-268 CNS) was over 100 µM. It also gave a GI50 (OVCAR-3 ovarian) of 7.11 µM, a TGI (OVCAR-3 ovarian) of over 100 µM and a GI50 (HCC-2998 colon) of 12.3 µM. For the same compound, the TGI (HCC-2998 colon) was over 100 µM, the GI50 (HS 578T breast) was 4.19 µM and the TGI (HS 578T breast) was over 100 µM. The GI50 (HCT-116 colon) was 4.79 µM, the TGI (HCT-116 colon) was over 100 µM and the GI50 (OVCAR-4 ovarian) was 3.26 µM. The TGI (OVCAR-4 ovarian) was over 100 µM, the GI50 (A498 renal) was 0.75 µM and the TGI (A498 renal) was 7.84 µM. The GI50 (CAKI-1 renal) was 0.943 µM, the TGI (CAKI-1 renal) was over 100 µM and the GI50 (786-0 renal) was 4.66 µM. The TGI (786-0 renal) was over 100 µM, the GI50 (OVCAR-8 ovarian) was 6.13 µM and the TGI (OVCAR-8 ovarian) was over 100 µM. It also gave a GI50 (SF-539 CNS) of 5.62 µM, a TGI (SF-539 CNS) of over 100 µM and a GI50 (UACC-257 melanoma) of 9.68 µM. It also gave a TGI (UACC-257 melanoma) of over 100 µM, a GI50 (MCF7 breast) of 1.96 µM and a TGI (MCF7 breast) of over 100 µM. It also gave a GI50 (SN12C renal) of 10.7 µM, a TGI (SN12C renal) of over 100 µM and a GI50 (OVCAR-5 ovarian) of 6.18 µM. The TGI (OVCAR-5 ovarian) was over 100 µM, the GI50 (U251 CNS) was 8.15 µM and the TGI (U251 CNS) was over 100 µM. For the same compound, the GI50 (HOP-92 NSCLC) was 0.58 µM, the TGI (HOP-92 NSCLC) was 9 µM and the GI50 (COLO 205 colon) was 3.11 µM. The TGI (COLO 205 colon) was 20.2 µM, the GI50 (MDA-MB-435) was 6.81 µM and the TGI (MDA-MB-435) was over 100 µM. The GI50 (SK-OV-3 ovarian) was 2.9 µM, the TGI (SK-OV-3 ovarian) was 69 µM and the GI50 (HL-60(TB) leukemia) was 1.68 µM. It also gave a TGI (HL-60(TB) leukemia) of 41.6 µM, a GI50 (T-47D breast) of 1.51 µM and a TGI (T-47D breast) of 30.5 µM. For the same compound, the GI50 (TK-10 renal) was 2.6 µM, the TGI (TK-10 renal) was 37.3 µM and the GI50 (M14 melanoma) was 6.42 µM. For the same compound, the TGI (M14 melanoma) was over 100 µM, the GI50 (SK-MEL-5 melanoma) was 2.39 µM and the TGI (SK-MEL-5 melanoma) was 15 µM. The GI50 (A549 NSCLC) was 8.29 µM, the TGI (A549 NSCLC) was over 100 µM and the GI50 (NCI-H522 lung) was 1.7 µM. The TGI (NCI-H522 lung) was 40 µM, the GI50 (PC-3 prostate) was 9.66 µM and the TGI (PC-3 prostate) was over 100 µM. For the same compound, the GI50 (SR leukemia) was 3.73 µM, the TGI (SR leukemia) was over 100 µM and the GI50 (RXF 393 renal) was 5.46 µM. For the same compound, the TGI (RXF 393 renal) was 43 µM, the GI50 (HOP-62 NSCLC) was 1.58 µM and the TGI (HOP-62 NSCLC) was over 100 µM. For the same compound, the GI50 (SK-MEL-28 melanoma) was 5.83 µM, the TGI (SK-MEL-28 melanoma) was over 100 µM and the GI50 (NCI-H460 lung) was 11.9 µM. For the same compound, the TGI (NCI-H460 lung) was over 100 µM, the GI50 (CCRF-CEM leukemia) was 7.81 µM and the TGI (CCRF-CEM leukemia) was over 100 µM. The GI50 (UO-31 renal) was 1.42 µM, the TGI (UO-31 renal) was 90.5 µM and the GI50 (LOX IMVI melanoma) was 3.27 µM. The TGI (LOX IMVI melanoma) was over 100 µM, the GI50 (DU-145 prostate) was 51.3 µM and the TGI (DU-145 prostate) was over 100 µM. The GI50 (NCI-H23 lung) was 11.6 µM, the TGI (NCI-H23 lung) was over 100 µM and the GI50 (SW-620 colon) was 13.2 µM. For the same compound, the TGI (SW-620 colon) was over 100 µM, the GI50 (SNB-75 CNS) was 0.641 µM and the TGI (SNB-75 CNS) was over 100 µM. The GI50 (BT-549 breast) was 10.2 µM, the TGI (BT-549 breast) was over 100 µM and the GI50 (HCT-15 colon) was 2.42 µM. The TGI (HCT-15 colon) was 58.3 µM, the GI50 (ACHN renal) was 2.99 µM and the TGI (ACHN renal) was 42.6 µM.

From PubChem BioAssay (NCI)
